Source: BindingDB's records for doi:10.1021/jm00062a011 (Smithkline Beecham Pharmaceuticals, 1993)
Where a name gives a salt, the structure may show the parent alone.

Target: cGMP-specific 3',5'-cyclic phosphodiesterase PDE5 (Sus scrofa)
Assay: In vitro inhibition of PDE-V isolated from porcine pulmonary artery.

Row | IC50 [µM] | Structure (SMILES)
1 | 18 | CCOc1ccccc1-c1nc2ncccc2[nH]1 [2-(2-Ethoxy-phenyl)-3H-imidazo[4,5-b]pyridine]
2 | 37 | Oc1ccccc1-c1nc2ncccc2[nH]1 [2-(3H-Imidazo[4,5-b]pyridin-2-yl)-phenol]
3 | 1 | CCCCCOc1ccccc1-c1nc2ccncc2[nH]1 [2-(2-Pentyloxy-phenyl)-3H-imidazo[4,5-c]pyridine; hydrochloride]
4 | 4 | CCCCCCOc1ccccc1-c1nc2ncccc2[nH]1 [2-(2-Hexyloxy-phenyl)-3H-imidazo[4,5-b]pyridine]
5 | 58 | COc1cc([S+](C)[O-])ccc1-c1nc2cnccc2[nH]1 (stereo unspecified) [2-(4-Methanesulfinyl-2-methoxy-phenyl)-1H-imidazo[4,5-c]pyridine(isomazole)]
6 | 6 | c1ccc(-c2nc3ncccc3[nH]2)c(OCC2CC2)c1 [2-(2-Cyclopropylmethoxy-phenyl)-3H-imidazo[4,5-b]pyridine]
7 | 4 | c1ccc(COc2ccccc2-c2nc3ncccc3[nH]2)cc1 [2-(2-Benzyloxy-phenyl)-3H-imidazo[4,5-b]pyridine]

The next lines start with the compound.

Row | Structure (SMILES) | IC50 [µM]
8 | c1ccc(-c2nc3ncccc3[nH]2)c(OC2CCCC2)c1 [2-(2-Cyclopentyloxy-phenyl)-3H-imidazo[4,5-b]pyridine] | 15
9 | ClCCCOc1ccccc1-c1nc2ncccc2[nH]1 [2-[2-(3-Chloro-propoxy)-phenyl]-3H-imidazo[4,5-b]pyridine] | 2
10 | CCCOc1ccccc1-c1cn2cccnc2n1 [2-(2-Propoxy-phenyl)-imidazo[1,2-a]pyrimidine] | 33
11 | CCCCOc1ccccc1-c1nc2ncccc2[nH]1 [2-(2-Butoxy-phenyl)-3H-imidazo[4,5-b]pyridine] | 1
12 | CCCNc1ccccc1-c1nc2ncccc2[nH]1 [[2-(3H-Imidazo[4,5-b]pyridin-2-yl)-phenyl]-propyl-amine] | 26
13 | CCCSc1ccccc1-c1nc2ncccc2[nH]1 [2-(2-Propylsulfanyl-phenyl)-3H-imidazo[4,5-b]pyridine] | 24
14 | OCCCOc1ccccc1-c1nc2ncccc2[nH]1 [3-[2-(3H-Imidazo[4,5-b]pyridin-2-yl)-phenoxy]-propan-1-ol] | 24
15 | CCCCCOc1ccccc1-c1nc2ncccc2[nH]1 [2-(2-Pentyloxy-phenyl)-3H-imidazo[4,5-b]pyridine] | 1
16 | COc1ccccc1-c1nc2ccncc2[nH]1 [2-(2-Methoxy-phenyl)-3H-imidazo[4,5-c]pyridine; hydrochloride] | 42
